Data taken from article PMC3267002 (Bioorganic & medicinal chemistry, 2011).
Where a name gives a salt, the structure may show the parent alone.

Experiments:
D4 receptor = biological target: T1, D4 receptor (Homo sapiens, UniProt P21917); test: NIMH-PDSP radioligand binding, D4; settings: compared to the methylene analog (so in the source)
T1 sequence (P21917 1-419): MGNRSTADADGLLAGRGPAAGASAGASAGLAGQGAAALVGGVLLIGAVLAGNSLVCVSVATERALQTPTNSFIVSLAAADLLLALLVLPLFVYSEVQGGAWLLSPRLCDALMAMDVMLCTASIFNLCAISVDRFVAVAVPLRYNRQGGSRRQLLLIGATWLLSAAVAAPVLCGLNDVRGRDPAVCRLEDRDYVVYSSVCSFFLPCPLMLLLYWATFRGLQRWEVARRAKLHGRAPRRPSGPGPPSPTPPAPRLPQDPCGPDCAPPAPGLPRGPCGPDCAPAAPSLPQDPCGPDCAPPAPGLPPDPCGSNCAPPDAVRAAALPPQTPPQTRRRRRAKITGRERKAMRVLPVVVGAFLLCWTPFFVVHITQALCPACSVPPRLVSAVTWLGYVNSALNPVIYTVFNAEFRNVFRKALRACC

5HT2C receptor = biological target: T2, 5HT2C receptor (Homo sapiens, UniProt P28335); test: NIMH-PDSP radioligand binding, 5HT2C
T2 sequence (P28335 33-458): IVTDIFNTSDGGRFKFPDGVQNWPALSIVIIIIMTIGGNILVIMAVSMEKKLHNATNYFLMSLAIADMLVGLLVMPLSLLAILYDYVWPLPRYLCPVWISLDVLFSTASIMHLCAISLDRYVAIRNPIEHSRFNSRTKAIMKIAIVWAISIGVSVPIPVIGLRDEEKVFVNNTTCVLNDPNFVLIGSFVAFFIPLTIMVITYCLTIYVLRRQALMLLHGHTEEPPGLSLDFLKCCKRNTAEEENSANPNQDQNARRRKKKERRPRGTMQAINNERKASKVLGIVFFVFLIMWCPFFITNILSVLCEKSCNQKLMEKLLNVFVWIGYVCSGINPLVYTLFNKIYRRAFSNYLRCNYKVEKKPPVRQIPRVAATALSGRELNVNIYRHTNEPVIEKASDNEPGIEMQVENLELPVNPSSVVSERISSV

D2 receptor = D2 receptor (Homo sapiens, UniProt P14416); test: NIMH-PDSP radioligand binding, D2; settings: compound 15 as the template
5HT1A receptor = biological target: T3, 5HT1A receptor (Homo sapiens, UniProt P08908); test: NIMH-PDSP radioligand binding, 5HT1A; settings: compound 15 as the template
T3 sequence (P08908 1-422): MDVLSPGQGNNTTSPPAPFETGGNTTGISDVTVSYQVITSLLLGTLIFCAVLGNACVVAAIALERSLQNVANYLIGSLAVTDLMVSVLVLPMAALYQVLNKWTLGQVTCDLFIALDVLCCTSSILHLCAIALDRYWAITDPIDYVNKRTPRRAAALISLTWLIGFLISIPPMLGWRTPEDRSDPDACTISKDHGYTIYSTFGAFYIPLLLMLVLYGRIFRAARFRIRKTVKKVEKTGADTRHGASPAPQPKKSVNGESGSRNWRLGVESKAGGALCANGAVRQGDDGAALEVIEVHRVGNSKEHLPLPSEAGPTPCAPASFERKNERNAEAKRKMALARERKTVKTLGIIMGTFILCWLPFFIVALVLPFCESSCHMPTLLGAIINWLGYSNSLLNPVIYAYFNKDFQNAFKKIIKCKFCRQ

Chain of D2 receptor (P14416 whole entry): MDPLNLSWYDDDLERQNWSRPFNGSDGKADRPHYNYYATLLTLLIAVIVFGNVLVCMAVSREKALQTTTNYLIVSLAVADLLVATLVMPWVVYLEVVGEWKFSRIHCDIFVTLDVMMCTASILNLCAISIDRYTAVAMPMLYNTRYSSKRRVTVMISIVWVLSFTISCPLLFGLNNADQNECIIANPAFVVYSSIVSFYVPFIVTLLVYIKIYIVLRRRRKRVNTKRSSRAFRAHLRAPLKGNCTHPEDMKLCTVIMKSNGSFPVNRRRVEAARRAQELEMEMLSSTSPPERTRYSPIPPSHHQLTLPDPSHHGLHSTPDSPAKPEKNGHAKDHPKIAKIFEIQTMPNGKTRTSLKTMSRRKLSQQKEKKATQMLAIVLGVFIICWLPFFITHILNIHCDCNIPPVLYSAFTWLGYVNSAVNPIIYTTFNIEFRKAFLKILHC

SMILES | Ki (5HT2C receptor) [µM] | further results
OC1(c2ccc(Cl)cc2)CCN(CCCSc2ccc(F)cc2)CC1 [Compound 6, 4-(4-chlorophenyl)-1-(3-((4-fluorophenyl)thio)propyl)piperidin-4-ol] |  | decrease in binding at the D4 receptor (D4 receptor): over 24 fold
OC1(c2ccc(Cl)cc2)CCN(CCCOc2ccc(F)cc2)CC1 [Compound 7, 4-(4-Chloro-phenyl)-1-[3-(4-fluoro-phenoxy)-propyl]-piperidin-4-ol] |  | increase in binding at the D4 receptor (D4 receptor): over 4 fold
Fc1ccc(SCCCN2CCC(c3ccc(Cl)cc3)CC2)cc1 [Compound 8, 4-(4-Chlorophenyl)-1-(3-((4-fluorophenyl)thio)propyl)piperidine hydrochloride] | > 10 | 
Fc1ccc(OCCCN2CCC(c3ccc(Cl)cc3)CC2)cc1 [Compound 9, 4-(4-Chlorophenyl)-1-(3-(4-fluorophenoxy)propyl)piperidine] | > 10 | 
[O-][S+](CCCN1CCC(c2ccc(Cl)cc2)CC1)c1ccc(F)cc1 (centres unmarked) [Compound 10, 4-(4-Chlorophenyl)-1-(3-((4-fluorophenyl)sulfinyl)propyl)piperidine HCl] | > 10 | 
Fc1ccc(OCCCN2CCN(c3ccccc3)CC2)cc1 [Compound 16, 1-(3-(4-Fluorophenoxy)propyl)-4-phenylpiperazine] |  | increase in binding at the D2 receptor (D2 receptor): over 10 fold
Clc1ccc(N2CCN(CCCOc3ccccc3)CC2)cc1 [Compound 17, 1-(4-Chlorophenyl)-4-(3-phenoxypropyl)piperazine HCl] |  | binding increased by a factor, 5HT1A receptor (5HT1A receptor): 3
Fc1ccc(OCCCN2CCN(c3ncccn3)CC2)cc1 [Compound 22, 2-(4-(3-(4-Fluorophenoxy)propyl)piperazin-1-yl)pyrimidine] | > 10 | 
